Results taken from ChEMBL document CHEMBL2074136, “Citrus juices inhibit the function of human organic anion-transporting polypeptide OATP-B” (Drug Metab Dispos, 2005).

T1: OATP2B1 (Homo sapiens, UniProt O94956)
T1 sequence (O94956 whole entry): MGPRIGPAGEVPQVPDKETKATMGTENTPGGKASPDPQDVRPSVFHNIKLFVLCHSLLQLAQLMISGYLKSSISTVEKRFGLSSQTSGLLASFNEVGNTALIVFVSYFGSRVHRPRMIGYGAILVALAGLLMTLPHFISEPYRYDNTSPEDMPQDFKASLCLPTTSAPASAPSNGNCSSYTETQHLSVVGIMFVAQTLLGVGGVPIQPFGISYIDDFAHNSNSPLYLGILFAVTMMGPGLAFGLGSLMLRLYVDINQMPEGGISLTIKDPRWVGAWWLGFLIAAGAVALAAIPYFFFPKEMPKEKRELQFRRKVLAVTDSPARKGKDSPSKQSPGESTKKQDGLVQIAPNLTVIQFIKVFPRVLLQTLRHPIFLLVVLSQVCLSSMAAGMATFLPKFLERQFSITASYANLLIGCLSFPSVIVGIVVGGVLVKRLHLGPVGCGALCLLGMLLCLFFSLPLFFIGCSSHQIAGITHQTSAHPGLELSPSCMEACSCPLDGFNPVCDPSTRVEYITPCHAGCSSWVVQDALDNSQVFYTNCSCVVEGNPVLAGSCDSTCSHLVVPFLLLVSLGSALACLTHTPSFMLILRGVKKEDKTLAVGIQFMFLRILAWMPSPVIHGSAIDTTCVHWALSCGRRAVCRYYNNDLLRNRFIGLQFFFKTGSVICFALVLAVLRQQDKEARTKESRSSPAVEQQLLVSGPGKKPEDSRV

T2: Solute carrier organic anion transporter family member 2B1 (Homo sapiens, UniProt O94956)
T2 sequence (O94956 whole entry): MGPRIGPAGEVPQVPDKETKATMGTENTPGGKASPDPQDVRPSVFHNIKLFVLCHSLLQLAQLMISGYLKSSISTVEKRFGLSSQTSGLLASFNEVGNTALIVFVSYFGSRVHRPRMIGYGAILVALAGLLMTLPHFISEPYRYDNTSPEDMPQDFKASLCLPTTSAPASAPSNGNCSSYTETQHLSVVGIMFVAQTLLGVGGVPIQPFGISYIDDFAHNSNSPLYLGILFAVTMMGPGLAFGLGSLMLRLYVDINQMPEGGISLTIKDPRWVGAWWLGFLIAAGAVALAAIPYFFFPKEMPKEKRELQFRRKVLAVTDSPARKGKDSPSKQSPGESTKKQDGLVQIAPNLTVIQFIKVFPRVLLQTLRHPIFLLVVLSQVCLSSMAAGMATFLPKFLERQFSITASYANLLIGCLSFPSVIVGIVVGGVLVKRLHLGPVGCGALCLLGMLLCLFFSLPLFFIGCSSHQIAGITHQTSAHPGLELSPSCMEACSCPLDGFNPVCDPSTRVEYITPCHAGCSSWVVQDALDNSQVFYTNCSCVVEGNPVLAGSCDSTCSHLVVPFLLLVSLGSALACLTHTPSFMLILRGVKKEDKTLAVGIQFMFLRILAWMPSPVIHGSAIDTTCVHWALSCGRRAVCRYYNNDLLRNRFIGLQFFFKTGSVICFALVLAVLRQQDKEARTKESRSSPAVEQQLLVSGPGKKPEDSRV


Legend:
Format in all cases: functional, cell-based
OATP2B1 = molecular target: T1, OATP2B1; assay: (§1) TP_TRANSPORTER: inhibition of Estrone-3-sulfate uptake (Estrone-3-sulfate: 10nM) in OATP2B1-expressing HEK293 cells; set-up: scale not given: the % may be the effect or the level left; details: HEK293 cells expressing OATP2B1, probe Estrone-3-sulfate (10 nM)
[1] = molecular target: T2, Solute carrier organic anion transporter family member 2B1; assay: TP_TRANSPORTER: inhibition of glibenclamide uptake (glibenclamide: 10nM) in OATP2B1-expressing HEK293 cells; set-up: scale not given: the % may be the effect or the level left
[2] = molecular target: T2, Solute carrier organic anion transporter family member 2B1; assay: TP_TRANSPORTER: uptake of DHEAS at a concentration of 17.4nM in OATP2B1-expressing HEK293 cells
[3] = molecular target: T2, Solute carrier organic anion transporter family member 2B1; assay: as §1; set-up: scale not given: the % may be the effect or the level left; details: hek293
[4] = substrate: C[C@]12CC[C@@H]3c4ccc(OS(=O)(=O)O)cc4CC[C@H]3[C@@H]1CCC2=O; assay: (§2) TP_TRANSPORTER: uptake in OATP2B1-expressing HEK293 cells
[5] = substrate: COc1ccc(Cl)cc1C(=O)NCCc1ccc(S(=O)(=O)NC(=O)NC2CCCCC2)cc1; assay: as §2

Molecule | Activity (OATP2B1) [%] | Activity [1] | also measured
CC(C)=CCC/C(C)=C/COc1c2ccoc2cc2oc(=O)ccc12 [BERGAMOTTIN] | 40 | is not an inhibitor [(-)] | 
C/C(=C\COc1c2ccoc2cc2oc(=O)ccc12)CCC(O)C(C)(C)O (stereo not drawn) [DIHYDROXYBERGAMOTTIN] | 58 | 35% | 
O=C1C[C@@H](c2ccc(O)cc2)Oc2cc(O)cc(O)c21 [NARINGENIN] | 72 | 45% | 
C[C@@H]1O[C@@H](O[C@H]2[C@H](Oc3cc(O)c4c(c3)O[C@H](c3ccc(O)cc3)CC4=O)O[C@H](CO)[C@@H](O)[C@@H]2O)[C@H](O)[C@H](O)[C@H]1O [NARINGIN] | 61 | 70% | 
COc1ccc(-c2cc(=O)c3c(OC)c(OC)c(OC)c(OC)c3o2)cc1OC [NOBILETIN] | 40 | 58% | 
C[C@]12CC[C@H](OS(=O)(=O)O)CC1=CC[C@@H]1[C@@H]2CC[C@]2(C)C(=O)CC[C@@H]12 [PRASTERONE SULFURIC ACID] |  |  | Activity [2]: substrate [+]
O=c1c(O)c(-c2ccc(O)c(O)c2)oc2cc(O)cc(O)c12 [QUERCETIN] | 80 | is not an inhibitor [(-)] | 
COc1ccc(-c2cc(=O)c3c(OC)c(OC)c(OC)c(OC)c3o2)cc1 [TANGERETIN] | 89 | 25% | 
APPLE JUICE |  | is not an inhibitor [(-)] | Activity [3]: 89%
GRAPEFRUIT JUICE |  | 38% | Activity [3]: 18%
ORANGE JUICE |  | 50% | Activity [3]: 45%
Solute carrier organic anion transporter family member 2B1 (Homo sapiens) (protein) MGPRIGPAGEVPQVPDKETKATMGTENTPGGKASPDPQDVRPSVFHNIKLFVLCHSLLQLAQLMISGYLKSSISTVEKRFGLSSQTSGLLASFNEVGNTALIVFVSYFGSRVHRPRMIGYGAILVALAGLLMTLPHFISEPYRYDNTSPEDMPQDFKASLCLPTTSAPASAPSNGNCSSYTETQHLSVVGIMFVAQTLLGVGGVPIQPFGISYIDDFAHNSNSPLYLGILFAVTMMGPGLAFGLGSLMLRLYVDINQMPEGGISLTIKDPRWVGAWWLGFLIAAGAVALAAIPYFFFPKEMPKEKRELQFRRKVLAVTDSPARKGKDSPSKQSPGESTKKQDGLVQIAPNLTVIQFIKVFPRVLLQTLRHPIFLLVVLSQVCLSSMAAGMATFLPKFLERQFSITASYANLLIGCLSFPSVIVGIVVGGVLVKRLHLGPVGCGALCLLGMLLCLFFSLPLFFIGCSSHQIAGITHQTSAHPGLELSPSCMEACSCPLDGFNPVCDPSTRVEYITPCHAGCSSWVVQDALDNSQVFYTNCSCVVEGNPVLAGSCDSTCSHLVVPFLLLVSLGSALACLTHTPSFMLILRGVKKEDKTLAVGIQFMFLRILAWMPSPVIHGSAIDTTCVHWALSCGRRAVCRYYNNDLLRNRFIGLQFFFKTGSVICFALVLAVLRQQDKEARTKESRSSPAVEQQLLVSGPGKKPEDSRV |  |  | Km [4]: 7.14 µM; Km [5]: 6.26 µM
